Data as given in publication PMC3567212 (Biochemistry, 2012).
Numbering of substitutions follows the chain as printed.

Columns and labels:
[1] = biological target: T1, Rhizobium etli pyruvate carboxylase (RePC) (Rhizobium etli, UniProt Q2K340, R427K); experiment: coupled spectrophotometric assay; format: biochemical
T1 sequence (Q2K340 1-1154 R427K): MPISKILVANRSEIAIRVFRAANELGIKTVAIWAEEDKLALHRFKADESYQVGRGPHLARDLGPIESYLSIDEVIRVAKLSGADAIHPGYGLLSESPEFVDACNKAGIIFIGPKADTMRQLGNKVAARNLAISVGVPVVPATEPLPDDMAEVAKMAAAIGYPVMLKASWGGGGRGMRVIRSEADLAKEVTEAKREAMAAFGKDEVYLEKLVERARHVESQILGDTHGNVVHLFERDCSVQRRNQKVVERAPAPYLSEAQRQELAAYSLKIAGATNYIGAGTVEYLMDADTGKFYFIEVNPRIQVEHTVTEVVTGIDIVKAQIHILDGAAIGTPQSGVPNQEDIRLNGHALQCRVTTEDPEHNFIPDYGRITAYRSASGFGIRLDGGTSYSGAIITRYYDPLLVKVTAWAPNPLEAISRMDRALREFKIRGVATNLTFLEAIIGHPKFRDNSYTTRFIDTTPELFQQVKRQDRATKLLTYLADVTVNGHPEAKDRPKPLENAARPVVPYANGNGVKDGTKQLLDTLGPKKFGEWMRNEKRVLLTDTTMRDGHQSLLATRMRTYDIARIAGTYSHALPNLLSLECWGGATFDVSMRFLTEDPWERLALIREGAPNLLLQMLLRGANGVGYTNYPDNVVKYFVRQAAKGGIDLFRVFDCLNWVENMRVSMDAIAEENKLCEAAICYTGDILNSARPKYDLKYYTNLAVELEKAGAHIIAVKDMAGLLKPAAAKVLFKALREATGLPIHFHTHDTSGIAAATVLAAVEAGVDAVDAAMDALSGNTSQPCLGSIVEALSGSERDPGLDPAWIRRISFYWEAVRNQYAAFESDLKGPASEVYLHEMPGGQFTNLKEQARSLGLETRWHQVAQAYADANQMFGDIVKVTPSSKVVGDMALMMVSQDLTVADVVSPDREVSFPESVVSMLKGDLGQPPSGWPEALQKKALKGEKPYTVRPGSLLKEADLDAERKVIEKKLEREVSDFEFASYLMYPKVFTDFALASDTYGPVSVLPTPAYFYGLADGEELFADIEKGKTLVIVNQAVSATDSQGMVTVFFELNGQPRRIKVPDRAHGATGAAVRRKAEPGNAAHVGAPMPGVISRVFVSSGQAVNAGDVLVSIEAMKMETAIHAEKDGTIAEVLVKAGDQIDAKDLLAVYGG

[2] = biological target: T2, Rhizobium etli pyruvate carboxylase (RePC) (Rhizobium etli, UniProt Q2K340); experiment: coupled spectrophotometric assay; format: biochemical
T2 sequence (Q2K340 1-1154): T1 sequence (Q2K340 1-1154 R427K) with K427R

N[C@@H](CC(=O)O)C(=O)O [L-aspartate]
Ki [1]: 4.5 ± 0.6 mM | Ki [2]: 5 ± 0.6 mM
